Test results from ChEMBL document CHEMBL2380247, “Synthesis and biological evaluation of novel aliphatic amido-quaternary ammonium salts for anticancer chemotherapy: part II” (2013).
Activity calls are given as the source filed them. The rule behind the calls is not given here.

What was measured:
[1] = system: MDA-MB-231; assay: Antiproliferative activity against human MDA-MB-231 cells at 0.3 uM by SRB assay; type: functional
[2] = system: NCI-H23; assay: Antiproliferative activity against human NCI-H23 cells at 1 uM by SRB assay; type: functional
[3] = system: ACHN; assay: Antiproliferative activity against human ACHN cells at 1 uM by SRB assay; type: functional
[4] = system: NUGC-3; assay: Antiproliferative activity against human NUGC3 cells at 3 uM by SRB assay; type: functional
[5] = system: ACHN; assay: Antiproliferative activity against human ACHN cells at 3 uM by SRB assay; type: functional
[6] = system: NCI-H23; assay: Antiproliferative activity against human NCI-H23 cells by SRB assay; type: functional
[7] = system: HCT-15; assay: Antiproliferative activity against human HCT15 cells at 10 uM by SRB assay; type: functional
[8] = system: NUGC-3; assay: Antiproliferative activity against human NUGC3 cells by SRB assay; type: functional
[9] = system: HCT-15; assay: Antiproliferative activity against human HCT15 cells at 1 uM by SRB assay; type: functional
[10] = system: MDA-MB-231; assay: Antiproliferative activity against human MDA-MB-231 cells at 10 uM by SRB assay; type: functional
[11] = system: ACHN; assay: Antiproliferative activity against human ACHN cells by SRB assay; type: functional
[12] = system: HCT-15; assay: Antiproliferative activity against human HCT15 cells at 0.3 uM by SRB assay; type: functional
[13] = system: PC-3; assay: Antiproliferative activity against human PC3 cells by SRB assay; type: functional
[14] = system: ACHN; assay: Antiproliferative activity against human ACHN cells at 10 uM by SRB assay; type: functional
[15] = system: NCI-H23; assay: Antiproliferative activity against human NCI-H23 cells at 0.3 uM by SRB assay; type: functional
[16] = system: ACHN; assay: Antiproliferative activity against human ACHN cells at 0.1 uM by SRB assay; type: functional
[17] = system: NUGC-3; assay: Antiproliferative activity against human NUGC3 cells at 0.3 uM by SRB assay; type: functional
[18] = system: PC-3; assay: Antiproliferative activity against human PC3 cells at 0.1 uM by SRB assay; type: functional
[19] = system: HCT-15; assay: Antiproliferative activity against human HCT15 cells by SRB assay; type: functional
[20] = system: NUGC-3; assay: Antiproliferative activity against human NUGC3 cells at 0.1 uM by SRB assay; type: functional
[21] = system: NUGC-3; assay: Antiproliferative activity against human NUGC3 cells at 10 uM by SRB assay; type: functional
[22] = system: PC-3; assay: Antiproliferative activity against human PC3 cells at 1 uM by SRB assay; type: functional
[23] = system: NCI-H23; assay: Antiproliferative activity against human NCI-H23 cells at 10 uM by SRB assay; type: functional
[24] = system: PC-3; assay: Antiproliferative activity against human PC3 cells at 0.3 uM by SRB assay; type: functional
[25] = system: HCT-15; assay: Antiproliferative activity against human HCT15 cells at 3 uM by SRB assay; type: functional
[26] = system: MDA-MB-231; assay: Antiproliferative activity against human MDA-MB-231 cells at 3 uM by SRB assay; type: functional
[27] = system: PC-3; assay: Antiproliferative activity against human PC3 cells at 3 uM by SRB assay; type: functional
[28] = system: NCI-H23; assay: Antiproliferative activity against human NCI-H23 cells at 0.1 uM by SRB assay; type: functional
[29] = target: Rho-related GTP-binding protein RhoB (Homo sapiens) (UniProt P62745); assay: Transactivation of RhoB in human HeLa cells by luciferase reporter assay; type: cell-based
Sequence of Rho-related GTP-binding protein RhoB (Homo sapiens) (P62745 whole entry): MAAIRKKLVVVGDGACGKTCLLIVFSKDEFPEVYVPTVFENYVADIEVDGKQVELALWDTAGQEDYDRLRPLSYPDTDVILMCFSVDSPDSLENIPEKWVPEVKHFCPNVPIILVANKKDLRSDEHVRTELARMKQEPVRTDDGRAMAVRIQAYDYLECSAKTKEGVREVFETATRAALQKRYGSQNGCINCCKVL

[30] = system: MDA-MB-231; assay: Antiproliferative activity against human MDA-MB-231 cells by SRB assay; type: functional
[31] = system: MDA-MB-231; assay: Antiproliferative activity against human MDA-MB-231 cells at 1 uM by SRB assay; type: functional
[32] = system: PC-3; assay: Antiproliferative activity against human PC3 cells at 10 uM by SRB assay; type: functional
[33] = system: ACHN; assay: Antiproliferative activity against human ACHN cells at 0.3 uM by SRB assay; type: functional
[34] = system: NCI-H23; assay: Antiproliferative activity against human NCI-H23 cells at 3 uM by SRB assay; type: functional
[35] = system: MDA-MB-231; assay: Antiproliferative activity against human MDA-MB-231 cells at 0.1 uM by SRB assay; type: functional
[36] = system: NUGC-3; assay: Antiproliferative activity against human NUGC3 cells at 1 uM by SRB assay; type: functional
[37] = system: HCT-15; assay: Antiproliferative activity against human HCT15 cells at 0.1 uM by SRB assay; type: functional

SMILES	growth, % of control at 0.3 µM [1] [%]	growth, % of control at 1 µM [2] [%]	growth, % of control at 1 µM [3] [%]	growth, % of control at 3 µM [4] [%]	growth, % of control at 3 µM [5] [%]	GI50 [6] [nM]	growth, % of control at 10 µM [7] [%]	GI50 [8] [nM]	growth, % of control at 1 µM [9] [%]	growth, % of control at 10 µM [10] [%]	GI50 [11] [nM]	growth, % of control at 0.3 µM [12] [%]	GI50 [13] [nM]	growth, % of control at 10 µM [14] [%]	growth, % of control at 0.3 µM [15] [%]	growth, % of control at 0.1 µM [16] [%]	growth, % of control at 0.3 µM [17] [%]	growth, % of control at 0.1 µM [18] [%]	GI50 [19] [nM]	growth, % of control at 0.1 µM [20] [%]	also measured
CCCCCCCCCCCCCC(=O)NCC(C)(C)C[N+](C)(C)C	103	104	95.1	16.2	83.8	1440	33.1	840	97.9	-11	3120	101	510	28.7	109	94.5	104	97.9	3700	103	growth, % of control at 10 µM [21]: -33.6%; growth, % of control at 1 µM [22]: 64.1%; growth, % of control at 10 µM [23]: -26.6%; growth, % of control at 0.3 µM [24]: 94.5%; growth, % of control at 3 µM [25]: 92.5%; growth, % of control at 3 µM [26]: 44%; growth, % of control at 3 µM [27]: -13%; growth, % of control at 0.1 µM [28]: 147%; Activity [29]: Active; GI50 [30]: 1310 nM; growth, % of control at 1 µM [31]: 90.2%; growth, % of control at 10 µM [32]: -44.4%; growth, % of control at 0.3 µM [33]: 96.2%; growth, % of control at 3 µM [34]: 48.3%; growth, % of control at 0.1 µM [35]: 98.5%; growth, % of control at 1 µM [36]: 84.7%; growth, % of control at 0.1 µM [37]: 102%
CCCCCCCCCCCCCCCCCC(=O)NCC(C)(C)C[N+](C)(C)C	78.8	86.3	71.3	17.7	43.5	1710	27.5	450	81.1	26.8	2300	91.8	240	45.8	95.3	86.5	72.3	84.1	1730	79.4	growth, % of control at 10 µM [21]: 26.4%; growth, % of control at 1 µM [22]: 11.9%; growth, % of control at 10 µM [23]: 21.5%; growth, % of control at 0.3 µM [24]: 76.1%; growth, % of control at 3 µM [25]: 46%; growth, % of control at 3 µM [26]: 41.6%; growth, % of control at 3 µM [27]: -38.6%; growth, % of control at 0.1 µM [28]: 97.1%; Activity [29]: Active; GI50 [30]: 1210 nM; growth, % of control at 1 µM [31]: 70.9%; growth, % of control at 10 µM [32]: -47%; growth, % of control at 0.3 µM [33]: 79.6%; growth, % of control at 3 µM [34]: 47.4%; growth, % of control at 0.1 µM [35]: 78.5%; growth, % of control at 1 µM [36]: 46.7%; growth, % of control at 0.1 µM [37]: 97.1%
CCCCCCCCCCCCCCCC(=O)NCC(C)(C)C[N+](C)(C)CC	99.8	85.6	87.4	13.8	58.9	1340	57	430	99.5	18.4	2600	103	440	34.5	101	93.7	90.9	103	> 10000	91.8	growth, % of control at 10 µM [21]: 1.32%; growth, % of control at 1 µM [22]: 38.5%; growth, % of control at 10 µM [23]: 3.85%; growth, % of control at 0.3 µM [24]: 94.2%; growth, % of control at 3 µM [25]: 85.2%; growth, % of control at 3 µM [26]: 46.6%; growth, % of control at 3 µM [27]: 4.52%; growth, % of control at 0.1 µM [28]: 108%; Activity [29]: Active; GI50 [30]: 1540 nM; growth, % of control at 1 µM [31]: 82.7%; growth, % of control at 10 µM [32]: -11.9%; growth, % of control at 0.3 µM [33]: 92.4%; growth, % of control at 3 µM [34]: 43.1%; growth, % of control at 0.1 µM [35]: 94.4%; growth, % of control at 1 µM [36]: 38.1%; growth, % of control at 0.1 µM [37]: 107%
CCCCCCCCCCCCCC(=O)N(C)CCC[N+](C)(C)C	98.7	61.8	72.4	23.3	41.2	560	16.5	320	82.6	23.8	1010	90.9	320	21.2	99.1	81.1	70.3	86.7	1720	85.1	growth, % of control at 10 µM [21]: 13.7%; growth, % of control at 1 µM [22]: 32.1%; growth, % of control at 10 µM [23]: -5.73%; growth, % of control at 0.3 µM [24]: 87.1%; growth, % of control at 3 µM [25]: 62%; growth, % of control at 3 µM [26]: 54.6%; growth, % of control at 3 µM [27]: -1.93%; growth, % of control at 0.1 µM [28]: 97.3%; Activity [29]: Active; GI50 [30]: 1780 nM; growth, % of control at 1 µM [31]: 88.9%; growth, % of control at 10 µM [32]: -4.36%; growth, % of control at 0.3 µM [33]: 82.2%; growth, % of control at 3 µM [34]: 8.98%; growth, % of control at 0.1 µM [35]: 95.2%; growth, % of control at 1 µM [36]: 35.7%; growth, % of control at 0.1 µM [37]: 88%
